The text below walks through data of patent publication US10711004B2 (Genentech, Inc., priority 2018, dated 2020).

Like-named read-outs stand apart in the source and are kept apart here.

In the experiment the target is human TRPA1 channel (Homo sapiens (Human), UniProt O75762). As to the kind of experiment: hTRPA1 CHO Ca2+ FLIPR Tetra assay, block of cinnamaldehyde induced calcium influx. The class given is cell-based. The conditions noted are these: for IC50: CHO cells expressing TRPA1, Hill coefficient fixed to 1.5. A digest of the protocol: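 Calcium-dye-loaded TRPA1-expressing CHO cells in HBSS/20 mM HEPES pH 7.4, 0.02% BSA were preincubated with compound for 10 or 90 min at room temperature. Calcium influx evoked by roughly an EC50 concentration of cinnamaldehyde was then read on FLIPR Tetra; IC50 came from curve fits with a fixed Hill coefficient.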
Sequence of human TRPA1 channel (O75762 whole entry): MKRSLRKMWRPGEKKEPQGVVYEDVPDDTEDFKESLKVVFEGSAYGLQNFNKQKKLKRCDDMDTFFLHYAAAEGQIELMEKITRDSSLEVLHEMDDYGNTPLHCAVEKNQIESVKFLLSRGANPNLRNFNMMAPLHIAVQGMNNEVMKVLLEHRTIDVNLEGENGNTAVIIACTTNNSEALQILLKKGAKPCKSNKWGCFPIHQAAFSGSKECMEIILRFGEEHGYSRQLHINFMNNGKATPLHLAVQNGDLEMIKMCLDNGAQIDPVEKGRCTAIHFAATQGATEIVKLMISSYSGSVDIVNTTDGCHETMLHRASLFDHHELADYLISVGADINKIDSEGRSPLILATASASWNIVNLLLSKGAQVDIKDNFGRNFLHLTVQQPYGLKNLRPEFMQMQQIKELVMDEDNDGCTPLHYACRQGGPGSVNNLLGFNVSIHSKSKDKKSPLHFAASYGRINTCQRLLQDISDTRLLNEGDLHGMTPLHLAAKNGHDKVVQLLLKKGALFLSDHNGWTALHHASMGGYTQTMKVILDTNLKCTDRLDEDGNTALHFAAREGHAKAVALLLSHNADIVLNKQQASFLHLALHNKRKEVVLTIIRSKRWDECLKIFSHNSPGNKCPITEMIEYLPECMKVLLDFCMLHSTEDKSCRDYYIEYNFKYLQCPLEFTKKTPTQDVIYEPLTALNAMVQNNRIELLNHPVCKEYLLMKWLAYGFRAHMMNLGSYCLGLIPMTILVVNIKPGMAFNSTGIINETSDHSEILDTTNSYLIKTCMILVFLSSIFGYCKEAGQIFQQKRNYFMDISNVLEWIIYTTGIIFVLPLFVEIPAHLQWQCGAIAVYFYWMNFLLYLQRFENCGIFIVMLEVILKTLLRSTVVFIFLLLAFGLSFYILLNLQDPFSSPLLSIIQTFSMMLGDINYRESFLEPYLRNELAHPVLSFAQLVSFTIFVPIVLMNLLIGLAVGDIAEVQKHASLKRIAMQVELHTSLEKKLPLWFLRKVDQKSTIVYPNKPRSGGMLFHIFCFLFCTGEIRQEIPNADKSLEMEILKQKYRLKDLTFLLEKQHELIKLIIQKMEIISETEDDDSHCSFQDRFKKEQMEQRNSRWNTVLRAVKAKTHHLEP

Setting [1] is: read-out: hTRPA1 IC50 (10 min), compounds incubated 10 minutes at room temperature before cinnamaldehyde agonist.
[2] abbreviates: compounds incubated 10 minutes at room temperature before cinnamaldehyde agonist.
Setting [3] is: read-out: hTRPA1 IC50 (90 min), compounds incubated 90 minutes at room temperature before cinnamaldehyde agonist.

Take `Cn1cnc2ncn(Cc3nc([C@H]4[C@@H]5CN(c6cccc(-c7ccccc7)c6)C[C@@H]54)no3)c(=O)c21` [Example Compound 234, 1-((3-((1R,5S,6r)-3-([1,1′-biphenyl]-3-yl)-3-azabicyclo[3.1.0]hexan-6-yl)-1,2,4-oxadiazol-5-yl)methyl)-7-methyl-1,7-dihydro-6H-purin-6-one]: the 50% inhibitory concentration (IC50) under setting [1] was 0.34 µM.

Take `Cn1cnc2ncn(Cc3nc([C@H]4C[C@H](c5ccc(F)c(Cl)c5)C4)no3)c(=O)c21` [Example Compound 220, 1-((3-((1r,3r)-3-(3-chloro-4-fluorophenyl)cyclobutyl)-1,2,4-oxadiazol-5-yl)methyl)-7-methyl-1,7-dihydro-6H-purin-6-one]: under setting [1], the half-maximal inhibitory concentration (IC50) worked out at 0.0546 µM.

As for `O=c1c2cccnc2cnn1Cc1nc([C@H]2[C@@H]3CN(c4ccccc4)C[C@@H]32)no1` [Example Compound 213, 6-((3-((1R,5S,6r)-3-phenyl-3-azabicyclo[3.1.0]hexan-6-yl)-1,2,4-oxadiazol-5-yl)methyl)pyrido[2,3-d]pyridazin-5(6H)-one], the IC50 by setting is: under setting [2], 0.0154 µM; (compounds incubated 90 minutes at room temperature before cinnamaldehyde agonist) 0.0085 µM; under setting [1], 0.00617 µM; under setting [3], 0.0051 µM.

For the molecule `O=c1c2cccnc2cnn1Cc1nc([C@H]2[C@@H]3CN(c4ccc5ncsc5c4)C[C@@H]32)no1` [Example Compound 279, 6-[[3-[(1R,5S)-3-(1,3-benzothiazol-6-yl)-3-azabicyclo[3.1.0]hexan-6-yl]-1,2,4-oxadiazol-5-yl]methyl]pyrido[2,3-d]pyridazin-5-one], the IC50 came to 0.0112 µM under setting [1] and 0.0056 µM under setting [3].

As to `Cn1cc(-c2ccc(N3C[C@@H]4[C@H](C3)[C@H]4c3noc(Cn4cnc5ncn(C)c5c4=O)n3)cc2)cn1` [Example Compound 179, 7-methyl-1-((3-((1R,5S,6r)-3-(4-(1-methyl-1H-pyrazol-4-yl)phenyl)-3-azabicyclo[3.1.0]hexan-6-yl)-1,2,4-oxadiazol-5-yl)methyl)-1,7-dihydro-6H-purin-6-one], the IC50 runs as follows: under setting [1], 0.134 µM; under setting [3], 0.067 µM.

Regarding `COc1ccc([C@H]2C[C@H](c3noc(Cn4cnc5nccc(C)c5c4=O)n3)C2)cc1`, under setting [1], the IC50 is 0.0387 µM.

Consider `Cn1cnc2ncn(Cc3nc([C@@H]4[C@H]5C=C(c6cccc(-c7cnco7)c6)C[C@H]54)no3)c(=O)c21` [Example Compound 280, 7-methyl-1-[[3-[(1R,5R,6S)-3-(3-oxazol-5-ylphenyl)-6-bicyclo[3.1.0]hex-2-enyl]-1,2,4-oxadiazol-5-yl]methyl]purin-6-one], for which the IC50 is, setting by setting: under setting [1], 0.0461 µM; under setting [3], 0.04 µM.

On to `O=c1c2cccnc2ncn1Cc1nc([C@H]2[C@@H]3CN(c4ccc(Cl)cn4)C[C@@H]32)no1` [Example Compound 151, 3-((3-((1R,5S,6r)-3-(5-chloropyridin-2-yl)-3-azabicyclo[3.1.0]hexan-6-yl)-1,2,4-oxadiazol-5-yl)methyl)pyrido[2,3-d]pyrimidin-4(3H)one], for which the IC50 came to 0.04 µM under setting [1] and 0.038 µM under setting [3].

For the molecule `Cn1cnc2ncn(Cc3nc([C@H]4[C@@H]5CN(c6ncccc6F)C[C@@H]54)no3)c(=O)c21` [Example Compound 132, 1-((3-((1R,5S,6r)-3-(3-fluoropyridin-2-yl)-3-azabicyclo[3.1.0]hexan-6-yl)-1,2,4-oxadiazol-5-yl)methyl)-7-methyl-1,7-dihydro-6H-purin-6-one], the IC50 came to 0.143 µM under setting [1] and 0.11 µM under setting [3].

`Cn1cnc2ncn(Cc3nc([C@H]4[C@@H]5C=C(c6ccc(F)c(F)c6)C[C@@H]54)no3)c(=O)c21` [Example Compound 93, 1-((3-((1S,5S,6R)-3-(3,4-difluorophenyl)bicyclo[3.1.0]hex-2-en-6-yl)-1,2,4-oxadiazol-5-yl)methyl)-7-methyl-1,7-dihydro-6H-purin-6-one]: the IC50 came to 0.0127 µM under setting [1] and 0.0039 µM under setting [3].

On to `Cn1cnc2ncn(Cc3nc([C@H]4[C@@H]5C=C(c6cccc(C(F)F)c6)C[C@@H]54)no3)c(=O)c21` [Example Compound 103, 1-((3-((1S,5S,6R)-3-(3-(difluoromethyl)phenyl)bicyclo[3.1.0]hex-2-en-6-yl)-1,2,4-oxadiazol-5-yl)methyl)-7-methyl-1,7-dihydro-6H-purin-6-one], for which the IC50 under setting [1] was found to be 0.0319 µM and the concentration for half-maximal inhibition (IC50) under setting [3] worked out at 0.026 µM.

Take `Cc1cncc2ncn(Cc3nc([C@@H]4[C@H]5Cc6ccccc6[C@H]54)no3)c(=O)c12` (stereo in doubt) [Example Compound 19, 5-methyl-3-[[3-[rac-(1R,1 aR,6aS)-1,1a,6,6a-tetrahydrocyclopropa[a]inden-1-yl]-1,2,4-oxadiazol-5-yl]methyl]pyrido[3,4-d]pyrimidin-4-one]: the IC50 under setting [2] worked out at 0.0299 µM.

Turning to `Cn1cnc2ncn(Cc3nc([C@H]4[C@@H]5CN(c6ccc7c(cnn7C)c6)C[C@@H]54)no3)c(=O)c21`, under setting [1], the half-maximal inhibitory concentration (IC50) was 0.141 µM.

`Cn1cnc2ncn(Cc3nc([C@H]4[C@@H]5CN(c6ccnc(F)c6)C[C@@H]54)no3)c(=O)c21` [Example Compound 175, 1-((3-((1R,5S,6r)-3-(2-fluoropyridin-4-yl)-3-azabicyclo[3.1.0]hexan-6-yl)-1,2,4-oxadiazol-5-yl)methyl)-7-methyl-1,7-dihydro-6H-purin-6-one]: the IC50 by setting is: under setting [1], 0.42 µM; under setting [3], 0.073 µM.

Regarding `O=c1c2cccnc2cnn1Cc1nc([C@H]2[C@@H]3CN(c4cc(Cl)ccn4)C[C@@H]32)no1` [Example Compound 167, 6-((3-((1R,5S,6r)-3-(4-chloropyridin-2-yl)-3-azabicyclo[3.1.0]hexan-6-yl)-1,2,4-oxadiazol-5-yl)methyl)pyrido[2,3-d]pyridazin-5(6H)-one], the 50% inhibitory concentration (IC50) reads like this: under setting [1], 0.0511 µM; under setting [3], 0.046 µM.

For `Cn1cnc2ncn(Cc3nc([C@@H]4[C@H]5C=C(c6cccc(F)c6)C[C@H]54)no3)c(=O)c21` [Example Compound 115, 1-((3-((1R,5R,6S)-3-(3-fluorophenyl)bicyclo[3.1.0]hex-2-en-6-yl)-1,2,4-oxadiazol-5-yl)methyl)-7-methyl-1,7-dihydro-6H-purin-6-one], the “TRPA1 IC50 compared with 3-azabicyclo[3.1.0]hexene linker and cyclobutylene linker analogues” value (bicyclo[3.1.0]hexene linker compounds versus same-substituent analogues (compounds 16, 191; 26, 1)) is given as “improved TRPA1 IC50 values”. The IC50 reads like this: under setting [1], 0.00973 µM; under setting [3], 0.0023 µM.

In the case of `Cn1cnc2ncn(Cc3nc([C@@H]4[C@H]5C=C(c6cccc(F)c6F)C[C@H]54)no3)c(=O)c21` [Example Compound 254, 7-methyl-1-[[3-[(1R,5R,6S)-3-(2,3-difluorophenyl)-6-bicyclo[3.1.0]hex-2-enyl]-1,2,4-oxadiazol-5-yl]methyl]purin-6-one], the IC50 is 0.0123 µM (read-out: hTRPA1 IC50 (10 min), compounds incubated 10 minutes at room temperature before cinnamaldehyde agonist, listed as 254) and 0.0021 µM (read-out: hTRPA1 IC50 (90 min), compounds incubated 90 minutes at room temperature before cinnamaldehyde agonist, listed as 254).

Take `Cn1nnc2ncn(Cc3nc([C@@H]4CC[C@@H](c5ccc(F)cc5)C4)no3)c(=O)c21` [Example Compound 106, 6-((3-((1R,3R)-3-(4-fluorophenyl)cyclopentyl)-1,2,4-oxadiazol-5-yl)methyl)-1-methyl-1,6-dihydro-7H-[1,2,3]triazolo[4,5-d]pyrimidin-7-one]: the IC50 was found to be 0.0403 µM under setting [1] and 0.044 µM under setting [3].

For the molecule `Cn1cnc2ncn(Cc3nc([C@H]4[C@@H]5CN(c6ccc7sncc7c6)C[C@@H]54)no3)c(=O)c21` [Example Compound 237, 1-((3-((1R,5S,6r)-3-(benzo[d]isothiazol-5-yl)-3-azabicyclo[3.1.0]hexan-6-yl)-1,2,4-oxadiazol-5-yl)methyl)-7-methyl-1,7-dihydro-6H-purin-6-one], the IC50 reads like this: under setting [1], 0.0182 µM; under setting [3], 0.0021 µM.

As for `Cc1ccnc2ncn(Cc3nc([C@H]4C[C@H](c5ccc(Cl)cc5)C4)no3)c(=O)c12` [Example Compound 17, 3-((3-((trans)-3-(4-chlorophenyl)cyclobutyl)-1,2,4-oxadiazol-5-yl)methyl)-5-methylpyrido[2,3-d]pyrimidin-4(3H)-one], the IC50 under setting [1] amounted to 0.0213 µM.

In the case of `Cn1cnc2ncn(Cc3nc([C@@H]4[C@H]5C=C(c6cccnc6)C[C@H]54)no3)c(=O)c21` [Example Compound 134, 7-methyl-1-((3-((1R,5R,6S)-3-(pyridin-3-yl)bicyclo[3.1.0]hex-2-en-6-yl)-1,2,4-oxadiazol-5-yl)methyl)-1,7-dihydro-6H-purin-6-one], the IC50 runs as follows: under setting [1], 0.348 µM; under setting [3], 0.44 µM.

On to `O=c1c2cccnc2ncn1Cc1nc([C@H]2C[C@H](c3cccc(Cl)c3)C2)no1`, for which the IC50 under setting [1] was 0.049 µM.

For `Cn1cnc2ncn(Cc3nc([C@H]4[C@@H]5CN(c6ccc7ncsc7c6)C[C@@H]54)no3)c(=O)c21` [Example Compound 211, 1-((3-((1R,5S,6r)-3-(benzo[d]thiazol-6-yl)-3-azabicyclo[3.1.0]hexan-6-yl)-1,2,4-oxadiazol-5-yl)methyl)-7-methyl-1,7-dihydro-6H-purin-6-one], the IC50 reads like this: under setting [1], 0.0638 µM; under setting [3], 0.01 µM.

For the molecule `CNc1nc2ncn(Cc3nc([C@@H]4[C@H]5C=C(c6ccccc6)C[C@H]54)no3)c(=O)c2n1C` [Example Compound 262, 7-methyl-8-(methylamino)-1-[[3-[(1R,5R,6S)-3-phenyl-6-bicyclo[3.1.0]hex-2-enyl]-1,2,4-oxadiazol-5-yl]methyl]purin-6-one], the half-inhibitory concentration (IC50) reads like this: under setting [1], 0.0335 µM; under setting [3], 0.014 µM.

On to `Cn1cnc2ncn(Cc3nc([C@H]4[C@@H]5CN(c6ccc7c(c6)CCC7)C[C@@H]54)no3)c(=O)c21`, for which the 50% inhibitory concentration (IC50) under setting [1] stood at 0.111 µM.
